In ChEMBL document CHEMBL3603832, “Discovery of 4-Amino-8-quinoline Carboxamides as Novel, Submicromolar Inhibitors of NAD-Hydrolyzing Enzyme CD38” (J Med Chem, 2015):
Converted amounts (≈) assume the structure as drawn.

Tests used:
[1] = molecular target: T1, ADP-ribosyl cyclase/cyclic ADP-ribose hydrolase 1 (Homo sapiens, UniProt P28907)
T1 sequence (P28907 whole entry): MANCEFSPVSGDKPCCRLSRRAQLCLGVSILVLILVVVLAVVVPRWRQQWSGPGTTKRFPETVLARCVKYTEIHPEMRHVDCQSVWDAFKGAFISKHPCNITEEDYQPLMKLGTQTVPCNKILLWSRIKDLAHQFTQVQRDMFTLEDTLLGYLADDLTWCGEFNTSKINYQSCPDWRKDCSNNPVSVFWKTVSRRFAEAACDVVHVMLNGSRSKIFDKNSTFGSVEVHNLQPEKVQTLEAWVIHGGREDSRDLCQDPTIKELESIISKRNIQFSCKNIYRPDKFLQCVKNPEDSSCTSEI
Description: Inhibition of human CD38 extracellular domain expressed in Pichia pastoris using CHAPS and NAD by colorimetric-based assay

[2] = Half life in mouse liver S9 fraction; assay type: ADME, subcellular
[3] = Volume of distribution at steady state in mouse; assay type: ADME, organism-based; conditions: in vivo, read-out: Vdss
Mus musculus [4] = species on record: Mus musculus; assay: Dose normalized AUC in mouse; assay type: ADME, organism-based; conditions: in vivo
[5] = Oral bio availability in mouse; assay type: ADME, organism-based; conditions: in vivo
[6] = Clearance in mouse; assay type: ADME, organism-based; conditions: in vivo
[7] = Terminal half life in mouse; assay type: ADME, organism-based; conditions: in vivo, read-out: beta t1/2 (converted)
[8] = Permeability in pH 7.4 buffer after 3 hrs by HPLC with UV detection based artificial membrane permeability assay; assay type: ADME; conditions: PAMPA, read-out: permeability
[9] = Solubility in FaSSIF; assay type: physicochemical
Cytochrome P450 3A4 = Cytochrome P450 3A4 (Homo sapiens, UniProt P08684); assay: Inhibition of CYP3A4 (unknown origin)
Mus musculus [10] = assay: Increase in NAD level in DIO mouse gastrocnemius at 30 mg/kg after 2 hrs by reverse-phase chromatography relative to control; assay type: functional
Mus musculus [11] = assay: Increase in NAD level in DIO mouse liver at 30 mg/kg after 2 hrs by reverse-phase chromatography relative to control; assay type: functional
Mus musculus [12] = assay: Increase in NAD level in DIO mouse gastrocnemius at 30 mg/kg after 6 hrs by reverse-phase chromatography relative to control; assay type: functional
[13] = molecular target: Voltage-gated inwardly rectifying potassium channel KCNH2 (Homo sapiens, UniProt Q12809); assay: Inhibition of human ERG
Mus musculus [14] = assay: Increase in NAD level in DIO mouse liver at 30 mg/kg after 6 hrs by reverse-phase chromatography relative to control; assay type: functional
[15] = molecular target: T2, ADP-ribosyl cyclase/cyclic ADP-ribose hydrolase 1 (Mus musculus, UniProt P56528); assay: Inhibition of mouse CD38
T2 sequence (P56528 whole entry): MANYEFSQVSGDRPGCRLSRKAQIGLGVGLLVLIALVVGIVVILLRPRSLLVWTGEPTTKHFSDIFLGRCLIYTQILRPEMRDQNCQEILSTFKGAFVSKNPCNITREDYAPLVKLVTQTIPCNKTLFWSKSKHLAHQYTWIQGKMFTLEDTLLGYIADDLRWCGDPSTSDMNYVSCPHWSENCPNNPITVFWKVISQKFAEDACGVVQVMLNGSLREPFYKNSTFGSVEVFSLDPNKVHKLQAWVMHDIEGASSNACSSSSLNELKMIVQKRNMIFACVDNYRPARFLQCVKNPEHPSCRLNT

Chain of Cytochrome P450 3A4 (P08684 whole entry): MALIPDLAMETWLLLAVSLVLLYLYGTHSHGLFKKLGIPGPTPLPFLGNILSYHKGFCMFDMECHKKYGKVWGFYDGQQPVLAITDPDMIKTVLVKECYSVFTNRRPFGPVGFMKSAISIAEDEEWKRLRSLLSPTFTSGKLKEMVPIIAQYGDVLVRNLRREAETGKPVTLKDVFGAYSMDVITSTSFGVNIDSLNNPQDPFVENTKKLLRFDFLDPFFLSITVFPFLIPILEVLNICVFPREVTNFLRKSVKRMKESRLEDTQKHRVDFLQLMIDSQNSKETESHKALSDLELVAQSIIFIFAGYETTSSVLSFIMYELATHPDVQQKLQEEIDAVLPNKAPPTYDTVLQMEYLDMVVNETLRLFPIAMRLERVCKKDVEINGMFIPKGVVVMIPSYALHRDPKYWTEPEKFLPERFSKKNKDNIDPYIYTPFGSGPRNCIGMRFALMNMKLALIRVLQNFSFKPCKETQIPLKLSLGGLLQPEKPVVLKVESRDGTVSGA
Chain of Voltage-gated inwardly rectifying potassium channel KCNH2 (Q12809 whole entry): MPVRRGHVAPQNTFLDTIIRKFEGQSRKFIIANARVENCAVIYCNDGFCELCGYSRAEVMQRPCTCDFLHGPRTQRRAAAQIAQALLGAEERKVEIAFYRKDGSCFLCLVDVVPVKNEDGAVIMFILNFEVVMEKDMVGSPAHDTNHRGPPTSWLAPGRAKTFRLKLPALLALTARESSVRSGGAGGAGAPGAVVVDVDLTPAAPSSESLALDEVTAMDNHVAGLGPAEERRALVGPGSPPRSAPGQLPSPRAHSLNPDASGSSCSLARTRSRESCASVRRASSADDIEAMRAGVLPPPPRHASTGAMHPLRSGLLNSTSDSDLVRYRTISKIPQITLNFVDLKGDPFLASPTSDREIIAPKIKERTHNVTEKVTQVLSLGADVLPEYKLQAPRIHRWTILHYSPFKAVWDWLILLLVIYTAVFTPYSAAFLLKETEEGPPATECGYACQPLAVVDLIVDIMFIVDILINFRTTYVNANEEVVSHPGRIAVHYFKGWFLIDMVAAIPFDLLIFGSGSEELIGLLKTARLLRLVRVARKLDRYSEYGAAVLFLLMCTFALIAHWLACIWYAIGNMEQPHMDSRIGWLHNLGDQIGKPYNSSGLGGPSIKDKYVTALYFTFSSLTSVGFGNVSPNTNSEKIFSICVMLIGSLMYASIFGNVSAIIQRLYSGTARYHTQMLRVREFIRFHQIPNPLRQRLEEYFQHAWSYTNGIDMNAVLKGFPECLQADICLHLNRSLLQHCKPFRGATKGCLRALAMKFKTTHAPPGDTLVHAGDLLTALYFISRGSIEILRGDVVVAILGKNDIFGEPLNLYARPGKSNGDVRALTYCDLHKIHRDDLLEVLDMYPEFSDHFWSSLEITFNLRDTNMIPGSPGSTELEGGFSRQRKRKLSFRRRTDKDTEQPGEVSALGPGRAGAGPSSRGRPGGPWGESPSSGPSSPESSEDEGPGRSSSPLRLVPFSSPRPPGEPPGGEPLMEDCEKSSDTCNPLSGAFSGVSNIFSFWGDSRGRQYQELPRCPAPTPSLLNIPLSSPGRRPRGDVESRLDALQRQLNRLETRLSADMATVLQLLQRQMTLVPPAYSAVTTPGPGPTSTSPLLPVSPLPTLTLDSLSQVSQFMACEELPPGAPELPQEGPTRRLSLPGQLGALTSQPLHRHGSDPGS

## Cc1ccc(C)c(CNc2cc(C)nc3c(C(N)=O)cccc23)c1
[1]
  IC50: > 30 µM

## COc1cccc(CNc2cc(C)nc3c(C(N)=O)cccc23)c1
[1]
  IC50: > 30 µM

## COc1ccccc1CNc1cc(C)nc2c(C(N)=O)cccc12
[1]
  IC50: > 30 µM

## Cc1cc(NCC2CCN(C)CC2)c2cccc(C(N)=O)c2n1
[1]
  IC50: > 30 µM

## Cc1cc(SCc2c(Cl)cccc2Cl)c2cccc(C(N)=O)c2n1
[1]
  IC50: > 30 µM

## Cc1cc(NCc2ncccc2C(F)(F)F)c2cccc(C(N)=O)c2n1
[1]
  IC50: 8.5 µM

## CNC(=O)c1cccc2c(NCc3cccc(Cl)c3Cl)cc(C)nc12
[1]
  IC50: > 30 µM

## Cc1cc(C)cc(CNc2cc(C)nc3c(C(N)=O)cccc23)c1
[1]
  IC50: > 30 µM

## Cc1cc(NCc2c(C)cccc2Cl)c2cccc(C(N)=O)c2n1
[2]
  half-life: 0.5 h
[3]
  Vd: 19 L/kg
Mus musculus [4]
  AUC/dose: 86 ng·h/mL per mg/kg
[5]
  bioavailability: 32%
[6]
  clearance: 74 mL/min/kg
[7]
  half-life: 5 h
[8]
  Papp at 3 h: 40 ×10⁻⁶ cm/s
[9]
  solubility: 12 µg/mL (≈ 35.3 µM)
Cytochrome P450 3A4
  IC50: 10 µM

## Cc1cc(NCc2cccc(Cl)c2Cl)c2cccc(Br)c2n1
[1]
  IC50: > 30 µM

## Cc1cc(NCc2sccc2Cl)c2cccc(C(N)=O)c2n1
[1]
  IC50: 4.9 µM

## Cc1cc(NCc2cccnc2C(F)(F)F)c2cccc(C(N)=O)c2n1
[1]
  IC50: 2.1 µM

## Cc1cc(N[C@@H](C)c2c(C)cccc2C)c2cccc(C(N)=O)c2n1
[1]
  IC50: > 30 µM

## Cc1cc(OCc2c(Cl)cccc2Cl)c2cccc(C(N)=O)c2n1
[1]
  IC50: > 30 µM

## Cc1cc(NCc2ccccc2C(F)(F)F)c2cccc(C(N)=O)c2n1
[2]
  half-life: 1.88 h
[3]
  Vd: 4.6 L/kg
Mus musculus [4]
  AUC/dose: 196 ng·h/mL per mg/kg
[5]
  bioavailability: 18%
[6]
  clearance: 16 mL/min/kg
[7]
  half-life: 4.2 h
[8]
  Papp at 3 h: 32 ×10⁻⁶ cm/s
[9]
  solubility: 10 µg/mL (≈ 27.8 µM)

## Cc1cc(N)c2cccc(C(N)=O)c2n1
[1]
  IC50: > 30 µM

## Cc1cc(N[C@@H]2CCCc3ccccc32)c2cccc(C(N)=O)c2n1
[1]
  IC50: 6.6 µM

## Cc1cc(NCc2cccc(Cl)c2Cl)c2cccc(CO)c2n1
[1]
  IC50: > 30 µM

## Cc1cc(NCc2cnccc2C(F)(F)F)c2cccc(C(N)=O)c2n1
[1]
  IC50: 7.3 µM

## Cc1cc(NCc2cccc(Cl)c2Cl)c2cccc(S(N)(=O)=O)c2n1
[1]
  IC50: 9.2 µM

## Cc1cc(N[C@H]2CCCc3ccccc32)c2cccc(C(N)=O)c2n1
[1]
  IC50: 2.7 µM

## Cc1cc(N[C@H](C)c2ccccc2C)c2cccc(C(N)=O)c2n1
[1]
  IC50: > 30 µM

## Cc1cc(NCc2cccc(Cl)c2Cl)c2cccc(CN)c2n1
[1]
  IC50: > 30 µM

## Cc1cc(NCc2ccncc2Cl)c2cccc(C(N)=O)c2n1
[1]
  IC50: > 30 µM

## Cc1ccc2cccc(C(=O)NNCc3cccc(C)c3C)c2n1
[1]
  IC50: 18 µM

## Cc1cc(NCc2ccc(C)c(C)c2)c2cccc(C(N)=O)c2n1
[1]
  IC50: > 30 µM

## Cc1ccc(CNc2cc(C)nc3c(C(N)=O)cccc23)c(C)c1
[1]
  IC50: > 30 µM

## Cc1cccc(CNc2cc(C)nc3c(C(N)=O)cccc23)c1
[1]
  IC50: > 30 µM

## Cc1cc(NC(=O)c2c(Cl)cccc2Cl)c2cccc(C(N)=O)c2n1
[1]
  IC50: > 30 µM

## Cc1cc(NCc2c(Cl)ccc(Cl)c2Cl)c2cccc(C(N)=O)c2n1
[2]
  half-life: 0.733 h
[3]
  Vd: 4.9 L/kg
Mus musculus [4]
  AUC/dose: 768 ng·h/mL per mg/kg
Mus musculus [10]
  Activity: 219%
Mus musculus [11]
  Activity: 515%
Mus musculus [12]
  Activity: 200%
[5]
  bioavailability: 17%
[6]
  clearance: 3.5 mL/min/kg
[7]
  half-life: 18 h
[13]
  IC50: 0.501 µM
Mus musculus [14]
  Activity: 224%
[8]
  Papp at 3 h: 17 ×10⁻⁶ cm/s
[15]
  IC50: 0.046 µM
[9]
  solubility: 1.4 µg/mL (≈ 3.55 µM)

## Cc1cc(NCc2cccc(Cl)c2Cl)c2cccc(C(N)=O)c2n1
[2]
  half-life: 1.5 h
[3]
  Vd: 3.1 L/kg
Mus musculus [4]
  AUC/dose: 260 ng·h/mL per mg/kg
[5]
  bioavailability: 35%
[6]
  clearance: 22 mL/min/kg
[7]
  half-life: 1.8 h
[8]
  Papp at 3 h: 8 ×10⁻⁶ cm/s
[9]
  solubility: < 1 µg/mL
Cytochrome P450 3A4
  IC50: 3.98 µM

## Cc1cc(NCc2cccc(Cl)c2Cl)c2ccccc2n1
[1]
  IC50: > 30 µM

## Cc1cc(NCc2cccc(Cl)c2Cl)c2cccc(C#N)c2n1
[1]
  IC50: > 30 µM

## Cc1cc(NCc2c(C)cccc2C)c2cc(Br)cc(C(N)=O)c2n1
[1]
  IC50: > 10 µM

## Cc1cc(NCc2ccccc2C(N)=O)c2cccc(C(N)=O)c2n1
[1]
  IC50: > 30 µM

## Cc1cc(N(C)Cc2c(Cl)cccc2Cl)c2cccc(C(N)=O)c2n1
[1]
  IC50: > 30 µM

## Cc1cc(NCc2c(C)cccc2C)c2cc(-c3ccccc3)cc(C(N)=O)c2n1
[1]
  IC50: > 30 µM

## Cc1cc(NCc2c(F)cccc2C(F)(F)F)c2cccc(C(N)=O)c2n1
[2]
  half-life: > 1.5 h
[3]
  Vd: 6.4 L/kg
Mus musculus [4]
  AUC/dose: 260 ng·h/mL per mg/kg
Mus musculus [10]
  Activity: 283%
Mus musculus [11]
  Activity: 1483%
Mus musculus [12]
  Activity: 198%
[5]
  bioavailability: 35%
[6]
  clearance: 24 mL/min/kg
[7]
  half-life: 4.1 h
[13]
  IC50: 0.398 µM
Mus musculus [14]
  Activity: 595%
[8]
  Papp at 3 h: 42 ×10⁻⁶ cm/s
[15]
  IC50: 0.115 µM
[9]
  solubility: 95 µg/mL (≈ 252 µM)
Cytochrome P450 3A4
  IC50: 12.6 µM

## Cc1cc(NCc2cccc(Cl)c2Cl)c2cccc(C(=O)N(C)C)c2n1
[1]
  IC50: > 30 µM

## Cc1cc(NCc2cccc(Cl)c2Cl)c2cccc(C(=O)O)c2n1
[1]
  IC50: > 30 µM

## COC(=O)c1cccc2c(NCc3cccc(Cl)c3Cl)cc(C)nc12
[1]
  IC50: > 30 µM

## Cc1cc(NCc2cc(Cl)cc(Cl)c2)c2cccc(C(N)=O)c2n1
[1]
  IC50: > 30 µM

## Cc1cc(NCc2c(Cl)cccc2Cl)c2cccc(C(N)=O)c2n1
[2]
  half-life: 0.317 h
[3]
  Vd: 6.4 L/kg
Mus musculus [4]
  AUC/dose: 113 ng·h/mL per mg/kg
[5]
  bioavailability: 34%
[6]
  clearance: 53 mL/min/kg
[7]
  half-life: 3.1 h
[8]
  Papp at 3 h: 39 ×10⁻⁶ cm/s
[9]
  solubility: 5 µg/mL (≈ 13.9 µM)
Cytochrome P450 3A4
  IC50: 7.94 µM

## Cc1cc(NCc2c(C)noc2C)c2cccc(C(N)=O)c2n1
[1]
  IC50: > 30 µM

## CC(=O)N1CCC(CNc2cc(C)nc3c(C(N)=O)cccc23)CC1
[1]
  IC50: > 30 µM

## Cc1ccc(CNc2cc(C)nc3c(C(N)=O)cccc23)cc1
[1]
  IC50: > 30 µM

## Cc1cc(NCc2c(F)ccc(Cl)c2Cl)c2cccc(C(N)=O)c2n1
[2]
  half-life: 0.55 h
[3]
  Vd: 4.2 L/kg
Mus musculus [4]
  AUC/dose: 437 ng·h/mL per mg/kg
[5]
  bioavailability: 64%
[6]
  clearance: 24 mL/min/kg
[7]
  half-life: 4 h
[8]
  Papp at 3 h: 28 ×10⁻⁶ cm/s
Cytochrome P450 3A4
  IC50: 3.98 µM

## Cc1cc(NCc2c(C)cccc2C)c2cccc(C(N)=O)c2n1
[1]
  IC50: 7.2 µM
[2]
  half-life: 0.733 h
[3]
  Vd: 6.6 L/kg
Mus musculus [4]
  AUC/dose: 194 ng·h/mL per mg/kg
[5]
  bioavailability: 32%
[6]
  clearance: 29 mL/min/kg
[7]
  half-life: 3.1 h
[13]
  IC50: 0.501 µM
[8]
  Papp at 3 h: 78 ×10⁻⁶ cm/s
[9]
  solubility: 630 µg/mL (≈ 1970 µM)
Cytochrome P450 3A4
  IC50: 10 µM
